Assay: Rat fecal excretion and metabolite profiles after single oral 5 mg/kg [14C]DCDQ
Assay type: in vivo, Sprague-Dawley rats
Conditions: male rats
Protocol: At sacrifice, blood samples were collected by cardiac puncture into tubes containing EDTA as the anticoagulant and placing them on ice. Aliquots of 50 μL were removed for combustion and determination of radioactivity content. Plasma was immediately obtained from the remaining blood by centrifugation at 4° C. Brains were excised after perfusion with 50 mL of chilled sterile saline. Urine samples were collected on dry ice at intervals of 0-8 and 8-24 hour post-dosing. Feces were collected at intervals of 0-8 and 8-24 hr post-dosing at room temperature and were homogenized as described previously. The biological specimens and aliquots of the dosing solution at pre- and post-dose were stored at approximately −70° C. until analyzed.
Brain and fecal samples were weighed and homogenized in water at volume-to-weight ratios of about 1:1 and 5:1, respectively. Blood aliquots (50 μL), brain homogenates (0.1 gram) and fecal homogenates (0.2 gram) were placed on Combusto-cones with Combusto-pads and combusted. A model 307 Tri-Carb Sample Oxidizer, equipped with an Oximate-80 Robotic Automatic Sampler (Perkin Elmer), was used for combustion. The liberated ^14CO2 was trapped with Carbo-Sorb E carbon dioxide absorber, mixed with PermaFluor® E+ liquid scintillation cocktail, and counted in a Tri-Carb Model 3100 TR/LL liquid scintillation counter (Perkin Elmer). The oxidation efficiency of the oxidizer was 98.2%.
Fecal homogenates were analyzed for metabolite profiles. Aliquots of 1 gram of fecal homogenates were mixed with 2 mL methanol, placed on ice for about 10 minutes and centrifuged. The supernatant was transferred to a clean tube. The residue was extracted three times with 2 mL of a water:methanol (3:7) mixture. The supernatants of each sample were combined, evaporated to about 1 mL, and centrifuged. Extraction efficiency was determined by analyzing aliquots of 10 μL of the supernatant for radioactivity. An aliquot (50-200 μL) of the supernatant was analyzed by HPLC with radioactivity flow detection for profiling. Samples were also analyzed by LC/MS to characterize the radioactive peaks.
A Waters model 2690 HPLC system (Waters Corp., Milford, Mass.) with a built-in autosampler was used for analysis. Separations were accomplished on a Phenomenex Luna C18(2) column (150×2.0 mm, 5 μm) (Phenomenex, Torrance, Calif.). The sample chamber of the autosampler was maintained at 4° C., while the column was at ambient temperature of about 20° C. A variable wavelength UV detector set to monitor 250 nm and a Flo-One β Model A525 radioactivity detector described above were used for data acquisition. The HPLC mobile phase consisted of 10 mM ammonium acetate, pH 4.5 (A) and methanol (B), and was delivered at 0.2 mL/min. […]

| SMILES | relative abundance in fecal extracts (8-24 hour fecal extracts) | dosed radioactivity in feces (0-8 hour fecal samples) | dosed radioactivity recovered in feces (first 24 hours post-dosing) [%] |
| --- | --- | --- | --- |
| c1cc2c3c(c1)[C@H]1CCC[C@H]1CN3CCNC2 [DCDQ, (9aR,12aS)-4,5,6,7,9,9a,10,11,12,12a-decahydro-cyclopenta[c][1,4]diazepine[6,7,1-ij]quinoline, reference compound] | only trace amounts | – | – |
| c1cc2c3c(c1)[C@H]1CCC[C@H]1CN3CCNC2 [[^14C]DCDQ] | – | less than 0.1% | 21.1±2.1 |

Source: patent US20060111305A1, “Metabolites of certain [1,4]diazepino[6,7,1-ij]quinoline derivatives and methods of preparation and use thereof” (Wyeth, priority 2004, published 2006)
